From patent US20250375460A1, “STAT DEGRADERS AND USES THEREOF” (Kymera Therapeutics, Inc., priority 2022, published 2025)

Target: T1, STAT3 (Homo sapiens, UniProt P40763)
T1 construct: expressed in transfected cells; host or cells: A549
Experiment: STAT3 HiBiT degradation assay in transfected A549 cells
Assay type: cell-based
Settings: 24 h compound incubation, Nano-Glo HiBiT lytic detection, read-out: STAT3 HiBiT A549 degradation 24 h: Average external-Abs DC50
Description: Compound preparation and Cell seeding: The transfected A549 cells were harvested from dish into cell culture medium and cell numbers counted. Cells were diluted with culture medium to the desired density and 30 μL of cell suspension (about 2000 cells/well) were added into each well of a 384-well cell culture plate as designated and transferred into 37° C. 5% CO2 incubator for 24 h. Compounds were dissolved to 10 mM stock solution and 12 μL of the stock solution was transferred to a 384 LDV-plate. 3 fold, 10-point dilution was performed by transferring 4 μL compound into 8 μL DMSO using a TECAN (EVO200) liquid handler. 30 μL of diluted compound from compound source plate was transferred into the cell plate as designated by using Echo550 and transferred into 37° C. 5% CO2 incubator for 24 h.
Detection: Plates were removed from incubators and equilibrated at room temperature for 15 minutes. Nano-Glo Hibit Lytic Detection reagent (Promega Cat #N3040) was thawed and equilibrated to room temperature before the experiment. 30 μL of Nano-Glo Hibit Lytic Detection reagent was added into each well to be detected. The plates were held at room temperature for 10 min followed by reading on EnSpire.
Data analysis: The remaining activity was calculated following the formula: Remaining Activity(%)=100%×(Lumsample−LumNC)/(LumPC−LumNC). Calculate the IC50 by fitting the curve using Xlfit (v5.3.1.3), equation 201: fit=(A+((B−A)/(1+((x/C)^D)))); A: Bottom; B: Top; C: IC50; and D: Slope.
The letter codes for STAT3 DC50 include: A (<0.001 μM), B (0.001-0.01 μM), C (0.01-0.1 μM), and D (>0.1 μM).

T1 sequence (P40763 whole entry): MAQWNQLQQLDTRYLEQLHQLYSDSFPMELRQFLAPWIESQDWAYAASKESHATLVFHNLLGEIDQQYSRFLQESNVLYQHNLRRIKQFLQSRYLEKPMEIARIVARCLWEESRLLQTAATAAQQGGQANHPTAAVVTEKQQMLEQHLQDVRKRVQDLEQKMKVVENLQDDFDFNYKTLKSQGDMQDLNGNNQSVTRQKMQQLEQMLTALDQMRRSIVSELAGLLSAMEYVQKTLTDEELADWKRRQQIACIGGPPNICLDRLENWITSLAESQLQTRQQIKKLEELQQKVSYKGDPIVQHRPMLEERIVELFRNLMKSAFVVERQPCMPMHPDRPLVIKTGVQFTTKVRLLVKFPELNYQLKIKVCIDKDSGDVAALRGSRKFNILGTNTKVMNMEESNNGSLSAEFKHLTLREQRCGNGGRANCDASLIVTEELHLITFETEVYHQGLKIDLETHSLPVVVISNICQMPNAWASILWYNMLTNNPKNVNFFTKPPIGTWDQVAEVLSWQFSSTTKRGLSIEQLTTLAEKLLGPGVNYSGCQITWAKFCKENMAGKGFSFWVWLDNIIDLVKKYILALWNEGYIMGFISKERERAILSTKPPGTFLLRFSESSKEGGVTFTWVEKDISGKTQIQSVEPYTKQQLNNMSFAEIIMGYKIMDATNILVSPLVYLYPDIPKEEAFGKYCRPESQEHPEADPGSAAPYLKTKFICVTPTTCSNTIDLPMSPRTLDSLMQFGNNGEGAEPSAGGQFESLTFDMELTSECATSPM

| SMILES | DC50 [nM] |
| --- | --- |
| C#Cc1ccc([C@H](C)NC(=O)[C@@H]2C[C@@H](O)CN2C(=O)[C@@H](c2cc(OCCCc3cccc(OC[C@H](CCC(N)=O)NC(=O)[C@@H]4CC[C@@H]5CCN(C(C)=O)C[C@H](NC(=O)c6cc7cc(C(=O)P(=O)(O)O)ccc7[nH]6)C(=O)N54)c3Cl)no2)C(C)C)cc1 [I-1] | < 1 |
| CC(=O)N1CC[C@H]2CC[C@@H](C(=O)N[C@@H](CCC(N)=O)COc3cccc(CCCOc4cc([C@@H](C(=O)N5C[C@H](O)C[C@H]5C(=O)N[C@@H](C)c5ccc(-c6scnc6C)cc5)C(C)C)on4)c3Cl)N2C(=O)[C@@H](NC(=O)c2cc3cc(C(=O)P(=O)(O)O)ccc3[nH]2)C1 [I-2] | 10 to 100 |
| C#Cc1ccc(CNC(=O)[C@@H]2C[C@@H](O)CN2C(=O)[C@@H](c2cc(OCCCc3cccc(OC[C@H](CCC(N)=O)NC(=O)[C@@H]4CC[C@@H]5CCN(C(C)=O)C[C@H](NC(=O)c6cc7cc(C(=O)P(=O)(O)O)ccc7[nH]6)C(=O)N54)c3Cl)no2)C(C)C)cc1 [I-3] | < 1 |
| C#Cc1ccc([C@H](C)NC(=O)[C@@H]2C[C@@H](O)CN2C(=O)[C@@H](NC(=O)CCCc2cccc(OC[C@H](CCC(N)=O)NC(=O)[C@@H]3CC[C@@H]4CCN(C(C)=O)C[C@H](NC(=O)c5cc6cc(C(=O)P(=O)(O)O)ccc6[nH]5)C(=O)N43)c2Cl)C(C)(C)C)cc1 [I-4] | 1 to 10 |
| C#Cc1ccc(CNC(=O)[C@@H]2C[C@@H](O)CN2C(=O)[C@@H](NC(=O)CCCc2cccc(OC[C@H](CCC(N)=O)NC(=O)[C@@H]3CC[C@@H]4CCN(C(C)=O)C[C@H](NC(=O)c5cc6cc(C(=O)P(=O)(O)O)ccc6[nH]5)C(=O)N43)c2Cl)C(C)(C)C)cc1 [I-5] | 1 to 10 |
| C#Cc1ccc(CNC(=O)[C@@H]2C[C@@H](O)CN2C(=O)[C@@H](c2cc(OCCCc3cccc(OC[C@H](CCC(N)=O)NC(=O)[C@@H]4CC[C@@H]5CCN(C(C)=O)C[C@H](NC(=O)c6cc7cc(C(=O)P(=O)(O)O)ccc7[nH]6)C(=O)N54)c3F)no2)C(C)C)cc1 [I-7] | < 1 |
| C#Cc1ccc([C@H](C)NC(=O)[C@@H]2C[C@@H](O)CN2C(=O)[C@@H](NC(=O)CCCc2cccc(OC[C@H](CCC(N)=O)NC(=O)[C@@H]3CC[C@@H]4CCN(C(C)=O)C[C@H](NC(=O)c5cc6cc(C(=O)P(=O)(O)O)ccc6[nH]5)C(=O)N43)c2F)C(C)(C)C)cc1 [I-8] | 1 to 10 |
| C#Cc1ccc(CNC(=O)[C@@H]2C[C@@H](O)CN2C(=O)[C@@H](NC(=O)CCCc2cccc(OC[C@H](CCC(N)=O)NC(=O)[C@@H]3CC[C@@H]4CCN(C(C)=O)C[C@H](NC(=O)c5cc6cc(C(=O)P(=O)(O)O)ccc6[nH]5)C(=O)N43)c2F)C(C)(C)C)cc1 [I-9] | 1 to 10 |
| C#Cc1ccc([C@H](C)NC(=O)[C@@H]2C[C@@H](O)CN2C(=O)[C@@H](c2cc(OCCCc3cccc(OC[C@H](CCC(N)=O)NC(=O)[C@@H]4CC[C@@H]5CCN(C(C)=O)C[C@H](NC(=O)c6cc7cc(C(=O)P(=O)(O)O)ccc7[nH]6)C(=O)N54)c3C)no2)C(C)C)cc1 [I-10] | 1 to 10 |
| C#Cc1ccc([C@H](C)NC(=O)[C@@H]2C[C@@H](O)CN2C(=O)[C@H](c2cc(OCCCc3cccc(OC[C@H](CCC(N)=O)NC(=O)[C@@H]4CC[C@@H]5CCN(C(C)=O)C[C@H](NC(=O)c6cc7cc(C(=O)P(=O)(O)O)ccc7[nH]6)C(=O)N54)c3C)no2)C(C)C)cc1 [I-11] | > 100 |
| C#Cc1ccc([C@H](C)NC(=O)[C@@H]2C[C@@H](O)CN2C(=O)[C@@H](NC(=O)CCCc2cccc(OC[C@H](CCC(N)=O)NC(=O)[C@@H]3CC[C@@H]4CCN(C(C)=O)C[C@H](NC(=O)c5cc6cc(C(=O)P(=O)(O)O)ccc6[nH]5)C(=O)N43)c2C)C(C)(C)C)cc1 [I-13] | 10 to 100 |
| C#Cc1ccc(CNC(=O)[C@@H]2C[C@@H](O)CN2C(=O)[C@@H](NC(=O)CCCc2cccc(OC[C@H](CCC(N)=O)NC(=O)[C@@H]3CC[C@@H]4CCN(C(C)=O)C[C@H](NC(=O)c5cc6cc(C(=O)P(=O)(O)O)ccc6[nH]5)C(=O)N43)c2C)C(C)(C)C)cc1 [I-14] | 1 to 10 |
| CC(=O)N1CC[C@H]2CC[C@@H](C(=O)N[C@@H](CCC(N)=O)COc3cccc(CCCOc4cc([C@H](C(=O)N5C[C@H](O)C[C@H]5C(=O)N[C@@H](C)c5ccc(-c6scnc6C)cc5)C(C)C)on4)c3F)N2C(=O)[C@@H](NC(=O)c2cc3cc(C(=O)P(=O)(O)O)ccc3[nH]2)C1 [I-15] | < 1 |
| CC(=O)N1CC[C@H]2CC[C@@H](C(=O)N[C@@H](CCC(N)=O)COc3cccc(CCCOc4cc([C@@H](C(=O)N5C[C@H](O)C[C@H]5C(=O)N[C@@H](C)c5ccc(-c6scnc6C)cc5)C(C)C)on4)c3C)N2C(=O)[C@@H](NC(=O)c2cc3cc(C(=O)P(=O)(O)O)ccc3[nH]2)C1 [I-20] | 10 to 100 |
| CC(=O)N1CC[C@H]2CC[C@@H](C(=O)N[C@@H](CCC(N)=O)COc3cccc(CCCOc4cc([C@H](C(=O)N5C[C@H](O)C[C@H]5C(=O)NCc5ccc(-c6scnc6C)cc5)C(C)C)on4)c3C)N2C(=O)[C@@H](NC(=O)c2cc3cc(C(=O)P(=O)(O)O)ccc3[nH]2)C1 [I-21] | < 1 |
| CC(=O)N1CC[C@H]2CC[C@@H](C(=O)N[C@@H](CCC(N)=O)COc3cccc(CCCOc4cc([C@@H](C(=O)N5C[C@H](O)C[C@H]5C(=O)NCc5ccc(-c6scnc6C)cc5)C(C)C)on4)c3C)N2C(=O)[C@@H](NC(=O)c2cc3cc(C(=O)P(=O)(O)O)ccc3[nH]2)C1 [I-22] | 10 to 100 |
| CC(=O)N1CC[C@H]2CC[C@@H](C(=O)N[C@@H](CCC(N)=O)COc3cccc(CCCOc4cc([C@H](C(=O)N5C[C@H](O)C[C@H]5C(=O)N[C@@H](C)c5ccc(-c6scnc6C)cc5)C(C)C)on4)c3Cl)N2C(=O)[C@@H](NC(=O)c2cc3cc(C(=O)P(=O)(O)O)ccc3[nH]2)C1 [I-23] | < 1 |
| CC(=O)N1CC[C@@H]2CC[C@H](C(=O)N[C@@H](CCC(N)=O)COc3cccc(CCCCC(=O)N[C@H](C(=O)N4C[C@H](O)C[C@H]4C(=O)NCc4ccc(-c5scnc5C)cc4)C(C)(C)C)c3Cl)N2C(=O)[C@H](NC(=O)c2cc3cc(C(=O)P(=O)(O)O)ccc3[nH]2)C1 [I-24] | > 100 |
| CCOP(=O)(OCC)C(=O)c1ccc2[nH]c(C(=O)N[C@H]3CN(C(C)=O)CC[C@H]4CC[C@@H](C(=O)N[C@@H](CCC(N)=O)COc5cccc(CCCOc6cc([C@H](C(=O)N7C[C@H](O)C[C@H]7C(=O)NCc7ccc(-c8scnc8C)cc7)C(C)C)on6)c5Cl)N4C3=O)cc2c1 [I-25] | 10 to 100 |
| CNC(=O)N1CC[C@H]2CC[C@@H](C(=O)N[C@@H](CCC(N)=O)COc3cccc(CCCC(=O)N[C@H](C(=O)N4C[C@H](O)C[C@H]4C(=O)N[C@@H](C)c4ccc(-c5scnc5C)cc4)C(C)(C)C)c3Cl)N2C(=O)[C@@H](NC(=O)c2cc3cc(C(F)(F)P(=O)(O)O)ccc3s2)C1 [I-26] | > 100 |
| CC(=O)N1CC[C@H]2CC[C@@H](C(=O)N[C@@H](CCC(N)=O)COc3cccc(CCCOc4cc([C@H](C(=O)N5C[C@H](O)C[C@H]5C(=O)NCc5ccc(-c6scnc6C)cc5)C(C)C)on4)c3Cl)N2C(=O)[C@@H](NC(=O)c2cc3cc(C(=O)P(=O)(O)O)ccc3[nH]2)C1 [I-27] | < 1 |
| CC(=O)N1CC[C@H]2CC[C@@H](S(=O)(=O)N[C@@H](CCC(N)=O)COc3cccc(CCCC(=O)N[C@H](C(=O)N4C[C@H](O)C[C@H]4C(=O)N[C@@H](C)c4ccc(-c5scnc5C)cc4)C(C)(C)C)c3Cl)N2C(=O)[C@@H](NC(=O)c2cc3cc(C(=O)P(=O)(O)O)ccc3[nH]2)C1 [I-30] | 1 to 10 |
